The source of these data is ChEMBL document CHEMBL1146483, “Antitumor activity of bruceantin: an old drug with new promise” (J Nat Prod, 2004).

In brackets after ≈: the same amount, converted by molar mass.

One series relates to BV-173. In words: Cytotoxicity against human BV173 cells by trypan blue exclusion method. Format: functional, cell-based.
A further series deals with NB-4. In words: Cytotoxicity against human NB4 cells by trypan blue exclusion method. Format: functional, cell-based.
Another series has as its system U-937. The series can be described thus: Cytotoxicity against human U937 cells by trypan blue exclusion method. Format: functional, cell-based.
Series [1] in a line: Cytotoxicity against human DHL6 cells by trypan blue exclusion method. It is filed as functional, cell-based. As to conditions: SU-DHL-6.
Series [2] concerns HL-60. The series can be described thus: Cytotoxicity against human HL60 cells by trypan blue exclusion method. It is filed as functional, cell-based.
The subject of another series is Kasumi 1. The series can be described thus: Cytotoxicity against human Kasumi-1 cells by trypan blue exclusion method. Format: functional, cell-based.
The test system of a further series is REH. The series can be described thus: Cytotoxicity against human REH cells by trypan blue exclusion method. Format: functional, cell-based.
The test system of the next series is K562. The series can be described thus: Cytotoxicity against human K562 cells assessed as cell viability at 50 ng/mL after 4 days by trypan blue exclusion method. It is filed as functional. As to conditions: K562, 96 h, read-out: Activity.
Series [3] can be described thus: Cytotoxicity against concanavalin-stimulated human lymphocytes cells assessed as cell viability at 50 ng/mL after 4 days by trypan blue exclusion method. Format: cell-based, Lymphocyte. The settings on record: read-out: Activity.
For series [4], the system named is HL-60. The series can be described thus: Induction of apoptosis in human HL60 cells after 24 hrs by DAPI staining. Format: functional, cell-based. The settings on record: HL-60, 24 h.
Series [5] has as its system RPMI-8226. In words: Induction of apoptosis in human RPMI8226 cells after 24 hrs by DAPI staining. As to conditions: RPMI-8226, 24 h. Format: functional, cell-based.
The test system of another series is U-266. The series can be described thus: Induction of apoptosis in human U266 cells after 24 hrs by DAPI staining. It is filed as functional, cell-based. The settings on record: U-266, 24 h.
The next series deals with NCI-H929. The series can be described thus: Induction of apoptosis in human NCI-H929 cells after 24 hrs by DAPI staining. Format: functional, cell-based. As to conditions: NCI-H929, 24 h.
Series [6] has as its system RPMI-8226. The series can be described thus: Antitumor activity in human RPMI8226 cells xenografted in SCID mouse assessed as induction of apoptosis in peripheral proliferating areas at 5 to 12 mg mg/kg, ip administered every 3 days. It is filed as functional.
The subject of another series is Daudi. The series can be described thus: Cytotoxicity against human Daudi cells by trypan blue exclusion method. It is filed as functional, cell-based.
Series [7] can be described thus: Cytotoxicity against human RS4:11 cells by trypan blue exclusion method. It is filed as functional, cell-based.
Series [8] is described as follows: Cytotoxicity against human SUP-B13 cells by trypan blue exclusion method. Format: functional, cell-based.

Consider `COC(=O)[C@@]12OC[C@]34[C@H]([C@@H](O)[C@@H]1O)[C@@]1(C)CC(=O)C(O)=C(C)[C@@H]1C[C@H]3OC(=O)[C@H](OC(=O)/C=C(\C)C(C)C)[C@@H]24` [BRUCEANTIN], for which the concentration for half-maximal inhibition (IC50) was less than 0.015 µg/mL in the series with BV-173; less than 0.015 µg/mL in the series with NB-4; less than 0.015 µg/mL with U-937; less than 0.015 µg/mL in [1]; 0.02 µg/mL (≈ 0.0365 µM) in the series on HL-60 [2]; 0.02 µg/mL (≈ 0.0365 µM) in the series on Kasumi 1. The IC50 is 0.02 µg/mL (≈ 0.0365 µM) in the series with REH; 12.2 nM in the series with HL-60 [4]; 12.8 nM with RPMI-8226 [5]; 49 nM in the series on U-266; 115 nM with NCI-H929; less than 0.015 µg/mL with Daudi. In addition, the IC50 in [7] and in series [8] was less than 0.015 µg/mL throughout. Moreover, the viability at 0.05 µg/mL in the series on K562 was 90%. For the same molecule, the viability at 96 h, 50 ng/mL in series [3] worked out at 90%. For the same molecule, the Activity in the series on RPMI-8226 [6] came to 36.6%.
